Source: patent US12209079B2 (GENERAL INCORPORATED ASSOCIATION PHARMA VALLEY PROJECT …, priority 2017, dated 2025)
Structures can show the parent of a compound that is named as a salt.

What was measured:
[1] = target: rhTDO (recombinant human TDO) (Homo sapiens, UniProt P48775); test: Enzyme assay using rhTDO (rate of kynurenine production); format: biochemical; conditions: 2 h; final concentration of the compound 10 μM; rate relative to reaction without compound; read-out: rhTDO-mediated kynurenine production
Experimental: 4 μL of a compound solution was added to 176 μL of a rhTDO reaction solution (0.5 M potassium phosphate buffer (20 μL), 0.2 M ascorbic acid (20 μL), 0.5 mM methylene blue (4 μL), 10 mg/mL catalase (2 μL), H2O (128 μL), and rhTDO (2 μL)). The mixture was pipetted and preincubated at 37° C. for 10 minutes. Then, the whole amount was brought to 200 μL by the addition of 20 μL of a 20 mM aqueous tryptophan solution, and the mixture was pipetted again and reacted at 37° C. for 120 minutes. After the reaction, the enzymatic reaction was terminated by the addition of 40 μL of a 30% [v/v] aqueous trichloroacetic acid solution to the reaction solution. The mixture was well stirred by pipetting and heated at 50° C. for 15 minutes so that N-formylkynurenine was converted to kynurenine. The reaction solution thus heated was centrifuged (15,000 rpm, 5 min, 24° C.), and 150 μL of the supernatant was transferred to a transparent 96-well flat-bottomed plate, followed by the measurement of absorbance at 490 nm using SpectraMax M5 SK (background measurement). After the measurement, a solution of 2% [w/v] p-dimethylbenzaldehyde in acetic acid was added at 150 μL/well and reacted for 5 minutes, followed by the measurement of absorbance at 490 nm again. The rate of kynurenine production was calculated according to the following expression. Rate of kynurenine production (%) for each compound in the case of using rhTDO={(Absorbance at 490 nm in the tryptophan-containing aqueous solution comprising rhTDO and the compound of the present invention−Absorbance of the background)/(Absorbance at 490 nm in the tryptophan-containing aqueous solution without the addition of the compound solution−Absorbance of the background)}×100 IDO Cell-Based Assay Protocol

[2] = target: rhIDO (recombinant human IDO) (Homo sapiens, UniProt P14902); test: Enzyme assay using rhIDO (rate of kynurenine production); format: biochemical; conditions: 2 h; final concentration of the compound 10 μM; rate relative to reaction without compound; read-out: rhIDO-mediated kynurenine production
Experimental: Enzyme Assay Protocol Using rhIDO (Recombinant Human IDO)
4 μL of a compound solution was added to 176 μL of a rhIDO reaction solution (0.5 M potassium phosphate buffer (20 μL), 0.2 M ascorbic acid (20 μL), 0.5 mM methylene blue (4 μL), 10 mg/mL catalase (2 μL), H2O (128 μL), and rhIDO (2 μL)). The mixture was pipetted and preincubated at 37° C. for 10 minutes. Then, the whole amount was brought to 200 μL by the addition of 20 μL of a 2 mM aqueous tryptophan solution, and the mixture was pipetted again and reacted at 37° C. for 120 minutes. After the reaction, the enzymatic reaction was terminated by the addition of 40 μL of a 30% [v/v] aqueous trichloroacetic acid solution to the reaction solution. The mixture was well stirred by pipetting and heated at 50° C. for 15 minutes so that N-formylkynurenine was converted to kynurenine. The reaction solution thus heated was centrifuged (15,000 rpm, 5 min, 24° C.), and 150 μL of the supernatant was transferred to a transparent 96-well flat-bottomed plate, followed by the measurement of absorbance at 490 nm using SpectraMax MSSK (background measurement). After the measurement, a solution of 2% [w/v] p-dimethylbenzaldehyde in acetic acid was added at 150 μL/well and reacted for 5 minutes, followed by the measurement of absorbance at 490 nm again. The rate of kynurenine production was calculated according to the following expression. Rate of kynurenine production (%) for each compound in the case of using rhIDO={(Absorbance at 490 nm in the tryptophan-containing aqueous solution comprising rhIDO and the compound of the present invention−Absorbance of the background)/(Absorbance at 490 nm in the tryptophan-containing aqueous solution without the addition of the compound solution−Absorbance of the background)}×100 Enzyme Assay Protocol Using rhTDO (Recombinant Human TDO)

IDO in A431 cells = target: T1, IDO in A431 cells (Homo sapiens, UniProt P14902); test: IDO cell-based assay, kynurenine production in IFN-γ stimulated A431 cells; conditions: A-431, 24 h; final concentration of the compound 10 μM; rate relative to culture without compound
T1 construct: endogenous in cells; host or cells: A431 cells, IFN-γ stimulated
Experimental: A431 cells (3.0×10^5 cells/mL) suspended in a culture medium for assay (D-MEM; Wako 040-30095, 5% FBS, 50 units/mL penicillin, 50 μg/mL streptomycin, and 2 mM L-glutamine) were inoculated at 100 μL/well to a transparent 96-well flat-bottomed plate and cultured at 37° C. for 24 hours in 5% CO2. The culture medium was removed from the cells thus cultured. A tryptophan-containing culture medium (culture medium for assay supplemented with 178 μM L-tryptophan) was added at 80 μL/well, and further, a compound solution was added at 10 μL/well. The cells were preincubated for 1 hour. Then, the whole amount was brought to 100 μL/well by the addition of 10 μL/well of IFN-γ diluted into 100 ng/mL with a tryptophan-containing culture medium, and the cells were cultured for 24 hours. After the culture, absorbance was measured at 460 nm using SpectraMax MSSK (Molecular Devices, LLC) (background measurement). After the measurement, a kynurenine quantification reagent (prepared with 7% [v/v] aqueous trichloroacetic acid solution and a solution of 2% [w/v] p-dimethylbenzaldehyde in acetic acid at 2:5 [v/v]) was added at 200 μL/well and reacted for 5 minutes, followed by the measurement of absorbance at 460 nm again. The rate of kynurenine production was calculated according to the following expression. Rate of kynurenine production (%) for each compound in the case of using A431 cells={(Absorbance at 460 nm in the tryptophan-containing culture medium comprising the A431 cells and the solution of the compound of the present invention−Absorbance of the background)/(Absorbance at 460 nm in the tryptophan-containing culture medium without the addition of the compound solution−Absorbance of the background)}×100 TDO Cell-Based Assay Protocol

TDO in A172 cells = target: T2, TDO in A172 cells (Homo sapiens, UniProt P48775); test: TDO cell-based assay, kynurenine production in A172 cells; conditions: A 172; final concentration of the compound 10 μM; rate relative to culture without compound
T2 construct: endogenous in cells; host or cells: A172 cells
Experimental: A172 cells (3.0×10^5 cells/mL) suspended in a culture medium for assay (PRMI-1640; Wako 186-02155, 5% FBS, 50 units/mL penicillin, and 50 μg/mL streptomycin) were inoculated at 100 μL/well to a transparent 96-well flat-bottomed plate and cultured at 37° C. for 24 hours in 5% CO2. The culture medium was removed from the cells thus cultured. A culture medium for assay was added at 80 μL/well, and further, a compound solution was added at 10 μL/well. The cells were preincubated for 1 hour. Then, the whole amount was brought to 100 μL/well by the addition of 10 μL/well of a 5 mM aqueous tryptophan solution (final concentration of L-tryptophan: 524 μM), and the cells were cultured for 24 hours. After the culture, absorbance was measured at 460 nm using SpectraMax MSSK (Molecular Devices, LLC) (background measurement). After the measurement, a kynurenine quantification reagent (prepared with 7% [v/v] aqueous trichloroacetic acid solution and a solution of 2% [w/v] p-dimethylbenzaldehyde in acetic acid at 2:5 [v/v]) was added at 200 μL/well and reacted for 5 minutes, followed by the measurement of absorbance at 460 nm again. The rate of kynurenine production was calculated according to the following expression. Rate of kynurenine production (%) for each compound in the case of using A172 cells={(Absorbance at 460 nm in the tryptophan-containing culture medium comprising the A172 cells and the solution of the compound of the present invention−Absorbance of the background)/(Absorbance at 460 nm in the tryptophan-containing culture medium without the addition of the compound solution−Absorbance of the background)}×100

rhIDO (recombinant human IDO), sequence (P14902 whole entry): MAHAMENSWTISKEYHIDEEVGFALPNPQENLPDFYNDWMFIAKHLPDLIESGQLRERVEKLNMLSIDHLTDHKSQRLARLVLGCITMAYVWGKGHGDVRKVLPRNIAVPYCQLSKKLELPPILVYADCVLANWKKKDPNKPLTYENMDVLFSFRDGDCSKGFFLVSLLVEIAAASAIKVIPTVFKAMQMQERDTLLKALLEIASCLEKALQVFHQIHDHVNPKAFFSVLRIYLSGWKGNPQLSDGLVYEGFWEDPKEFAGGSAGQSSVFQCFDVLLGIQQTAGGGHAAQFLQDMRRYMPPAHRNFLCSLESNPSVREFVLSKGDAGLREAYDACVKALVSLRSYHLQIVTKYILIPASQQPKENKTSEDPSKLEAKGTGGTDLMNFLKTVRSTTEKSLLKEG
T1 sequence (P14902 whole entry): as above
T2 sequence (P48775 whole entry): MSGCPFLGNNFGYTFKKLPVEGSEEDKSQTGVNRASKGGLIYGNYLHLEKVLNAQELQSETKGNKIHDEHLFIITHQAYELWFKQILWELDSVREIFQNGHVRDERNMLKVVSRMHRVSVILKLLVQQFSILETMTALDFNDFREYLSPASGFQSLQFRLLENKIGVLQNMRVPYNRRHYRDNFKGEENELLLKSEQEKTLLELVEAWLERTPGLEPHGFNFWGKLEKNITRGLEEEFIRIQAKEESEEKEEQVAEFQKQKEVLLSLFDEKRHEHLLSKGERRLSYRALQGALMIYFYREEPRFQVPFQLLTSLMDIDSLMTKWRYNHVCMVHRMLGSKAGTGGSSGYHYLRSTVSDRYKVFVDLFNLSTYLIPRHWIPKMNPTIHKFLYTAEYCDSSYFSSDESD
rhTDO (recombinant human TDO), sequence (P48775 whole entry): as above

Row | SMILES | remaining activity at 10 µM [1] [%] | remaining activity at 10 µM [2] [%] | remaining activity at 10 µM (IDO in A431 cells) [%] | remaining activity at 10 µM (TDO in A172 cells) [%]
1 | Clc1ccc(CCN2CN=C(SCc3cc(Cl)c(Cl)cc3CSC3=NCN(CCc4ccc(Cl)c(Cl)c4)CN3)NC2)cc1Cl [Compound 38, 6,6′-(((4,5-Dichloro-1,2-phenylene)bis(methylene))bis(sulfanediyl))bis(3-(3,4-dichlorophenethyl)-1,2,3,4-tetrahydro-1,3,5-triazine)] | 37 | 16 | 2 | -1
2 | Clc1ccc(CCN2CN=C(SCc3ccc(Br)cc3CSC3=NCN(CCc4ccc(Cl)c(Cl)c4)CN3)NC2)cc1Cl [Compound 39, 6,6′-(((4-Bromo-1,2-phenylene)bis(methylene))bis(sulfanediyl))bis(3-(3,4-dichlorophenethyl)-1,2,3,4-tetrahydro-1,3,5-triazine)] | 38 | 7 | 0 | 7
3 | c1csc(CCN2CN=C(SCc3ccccc3CSC3=NCN(CCc4cccs4)CN3)NC2)c1 [Compound 40, 1,2-Bis (((5-(2-(thiophen-2-yl)ethyl)-1,4,5,6-tetrahydro-1,3,5-triazin-2-yl)thio)methyl)benzene] | 29 | 34 | 9 | 1
4 | Clc1ccc(CN2CN=C(SCc3ccccc3CSC3=NCN(Cc4ccc(Cl)cc4)CN3)NC2)cc1 [Compound 41, 1,2-Bis(((5-(4-chlorobenzyl)-1,4,5,6-tetrahydro-1,3,5-triazin-2-yl)thio)methyl)benzene] | 45 | 41 | 6 | 4
5 | FC(F)(F)c1ccc(CN2CN=C(SCc3ccccc3CSC3=NCN(Cc4ccc(C(F)(F)F)cc4)CN3)NC2)cc1 [Compound 42, 1,2-Bis(((5-(4-(trifluoromethyl)benzyl)-1,4,5,6-tetrahydro-1,3,5-triazin-2-yl)thio)methyl)benzene] | 41 | 68 | 6 | 2
6 | Fc1ccc(CN2CN=C(SCc3ccccc3CSC3=NCN(Cc4ccc(F)c(F)c4)CN3)NC2)cc1F [Compound 43, 1,2-Bis(((5-(3,4-difluorobenzyl)-1,4,5,6-tetrahydro-1,3,5-triazin-2-yl)thio)methyl)benzene] | 41 | 71 | 11 | -2
7 | Cc1ccc(C)c(CN2CN=C(SCc3ccccc3CSC3=NCN(Cc4cc(C)ccc4C)CN3)NC2)c1 [Compound 44, 1,2-Bis(((5-(2,5-dimethylbenzyl)-1,4,5,6-tetrahydro-1,3,5-triazin-2-yl)thio)methyl)benzene] | 26 | 50 | 11 | 1
8 | Fc1cccc(CN2CN=C(SCc3ccccc3CSC3=NCN(Cc4cccc(F)c4)CN3)NC2)c1 [Compound 45] | 33 | 65 | 13 | 0
9 | N=C(N)SCc1ccc(C(F)(F)F)cc1CSC(=N)N [Compound 46, dihydrobromide] | 14 | 3 | 10 | 24
10 | FC(F)(F)c1ccc(CSC2=NCN(CCc3ccc(Cl)c(Cl)c3)CN2)c(CSC2=NCN(CCc3ccc(Cl)c(Cl)c3)CN2)c1 [Compound 47, 6,6′-(((4-(Trifluoromethyl)-1,2-phenylene)bis(methylene))bis(sulfanediyl))bis(3-(3,4-dichlorophenethyl)-1,2,3,4-tetrahydro-1,3,5-triazine)] | 53 | 16 | 15 | 45
11 | FC(F)(F)c1ccc(CSC2=NCN(CCc3ccccc3Cl)CN2)c(CSC2=NCN(CCc3ccccc3Cl)CN2)c1 [Compound 48, 6,6′-(((4-(Trifluoromethyl)-1,2-phenylene)bis(methylene))bis(sulfanediyl))bis(3-(2-chlorophenethyl)-1,2,3,4-tetrahydro-1,3,5-triazine)] | 73 | 80 | 63 | 71
12 | N=C(N)SCCc1ccccc1CSC(=N)N [Compound 51, 2-(2-(Carbamimidoylthio)ethyl)benzyl carbamimidothioate dihydrobromide] | 13 | 19 | 23 | 25
